Laboratory results published in patent publication US9657043B2, “Amine compound and use thereof for medical purposes” (MITSUBISHI TANABE PHARMA CORPORATION, priority 2012, dated 2017).

Test system: peripheral blood lymphocyte count
Test: Evaluation of peripheral blood lymphocyte count-decreasing effect in mice
Type: in vivo, male BALB/c mice
Details: Mus musculus, ip, intraperitoneal administration, 24 hr after administration, in 20% cyclodextrin, read-out: ED50 (dose necessary for 50% reduction of the lymphocyte count of vehicle group as 100%)
Protocol: The compound of the present invention was dissolved or suspended in 20% cyclodextrin (manufactured by NIHON SHOKUHIN KAKO CO., LTD), and intraperitoneally administered to a 7- to 10-week-old male BALB/c mice (CHARLES RIVER LABORATORIES, JAPAN INC.) at a dose of 0.001-10 mg/kg body weight. After 24 hr from the administration of the compound of the present invention, peripheral blood (about 0.3 ml) was drawn from the postcava of the mouse with a heparin sodium (manufactured by NovoNordisk)-treated tuberculin syringe (manufactured by TERUMO CORPORATION) under ether anesthesia. The blood (0.1 ml) was hemolysed with an automatic hemolysis processing apparatus (TQ-Prep, manufactured by BECKMAN COULTER, Inc.), and the number of lymphocytes was counted with a Flow Cytometer (CYTOMICS FC 500, manufactured by BECKMAN COULTER, Inc.) by a gating method using scattering at the front and the side of the laser beam as indices and using Flow-Count™ Fluorospheres (manufactured by BECKMAN COULTER, Inc.), whose standard particle count is known, as internal standard. A dose necessary for 50% reduction of the lymphocyte count of vehicle group as 100% was calculated and used as ED50 value (mg/kg body weight).

## CCCCCCOc1ccc2c(=O)c3ccc(CCC(N)(CO)CO)cc3sc2c1 [Example 20, 3-[3-amino-4-hydroxy-3-(hydroxymethyl)butyl]-6-hexyloxy-9H-thioxanthen-9-one]
  ED50: 0.05 mg/kg

## CCCCCOc1ccc2oc3ccc(CCC(N)(CO)CO)cc3c(=O)c2c1 [Example 22, 2-[3-amino-4-hydroxy-3-(hydroxymethyl)butyl]-7-pentyloxy-9H-xanthen-9-one]
  ED50: 0.07 mg/kg

## CCCCCCOc1ccc2oc3ccc(CCC(N)(CO)CO)cc3c(=O)c2c1 [Example 23, 2-[3-amino-4-hydroxy-3-(hydroxymethyl)butyl]-7-hexyloxy-9H-xanthen-9-one]
  ED50: 0.03 mg/kg

## CCCCCOc1ccc2c(=O)c3ccc(CCC(N)(CO)CO)cc3oc2c1 [Example 41, 3-[3-amino-4-hydroxy-3-(hydroxymethyl)butyl]-6-pentyloxy-9H-xanthen-9-one]
  ED50: 0.37 mg/kg

## NC(CO)(CO)CCc1ccc2sc3ccc(Oc4cccc(C(F)(F)F)c4)cc3c(=O)c2c1 [Example 44, 2-[3-amino-4-hydroxy-3-(hydroxymethyl)butyl]-7-[3-(trifluoromethyl)phenoxy]-9H-thioxanthen-9-one]
  ED50: 0.01 mg/kg

## NC(CO)(CO)CCc1ccc2sc3cc(Oc4cccc(C(F)(F)F)c4)ccc3c(=O)c2c1 [Example 54, 2-[3-amino-4-hydroxy-3-(hydroxymethyl)butyl]-6-[3-(trifluoromethyl)phenoxy]-9H-thioxanthen-9-one]
  ED50: 0.02 mg/kg

## NC(CO)(CO)CCc1ccc2sc3cc(Oc4ccc(Cl)cc4)ccc3c(=O)c2c1 [Example 55, 2-[3-amino-4-hydroxy-3-(hydroxymethyl)butyl]-6-(4-chlorophenoxy)-9H-thioxanthen-9-one]
  ED50: 0.03 mg/kg

## NC(CO)(CO)CCc1ccc2sc3ccc(Oc4cccc(Cl)c4)cc3c(=O)c2c1 [Example 76, 2-[3-amino-4-hydroxy-3-(hydroxymethyl)butyl]-7-(3-chlorophenoxy)-9H-thioxanthen-9-one]
  ED50: 0.04 mg/kg

## Cl.NC(CO)(CO)CCc1ccc2c(=O)c3cc(Oc4cccc(C(F)(F)F)c4)ccc3oc2c1 [Example 83, 6-[3-amino-4-hydroxy-3-(hydroxymethyl)butyl]-2-[3-(trifluoromethyl)phenoxy]-9H-xanthen-9-one]
  ED50: 0.05 mg/kg

## NC(CO)(CO)CCc1ccc2oc3cc(Oc4ccc(F)cc4)ccc3c(=O)c2c1 [Example 105, 2-[3-amino-4-hydroxy-3-(hydroxymethyl)butyl]-6-(4-fluorophenoxy)-9H-xanthen-9-one]
  ED50: 0.22 mg/kg

## COc1ccc(Oc2ccc3c(=O)c4cc(CCC(N)(CO)CO)ccc4oc3c2)cc1 [Example 108, 2-[3-amino-4-hydroxy-3-(hydroxymethyl)butyl]-6-(4-methoxyphenoxy)-9H-xanthen-9-one]
  ED50: 0.05 mg/kg

## NC(CO)(CO)CCc1ccc2oc3cc(Oc4ccc(F)c(Cl)c4)ccc3c(=O)c2c1 [Example 116, 2-[3-amino-4-hydroxy-3-(hydroxymethyl)butyl]-6-(3-chloro-4-fluorophenoxy)-9H-xanthen-9-one]
  ED50: 0.09 mg/kg

## NC(CO)(CO)CCc1ccc2c(=O)c3cc(Oc4ccc(F)c(Cl)c4)ccc3oc2c1 [Example 138, 6-[3-amino-4-hydroxy-3-(hydroxymethyl)butyl]-2-(3-chloro-4-fluorophenoxy)-9H-xanthen-9-one]
  ED50: 0.06 mg/kg

## COc1ccc(Oc2ccc3c(=O)c4ccc(CCC(N)(CO)CO)cc4oc3c2)cc1 [Example 143, 3-[3-amino-4-hydroxy-3-(hydroxymethyl)butyl]-6-(4-methoxyphenoxy)-9H-xanthen-9-one]
  ED50: 0.14 mg/kg

## Cl.NC(CO)(CO)CCc1ccc2oc3cc(-c4cccc(OC(F)(F)F)c4)ccc3c(=O)c2c1 [Example 164, 2-[3-amino-4-hydroxy-3-(hydroxymethyl)butyl]-6-[3-(trifluoromethoxy)phenyl]-9H-xanthen-9-one]
  ED50: 0.04 mg/kg

## NC(CO)(CO)CCc1ccc2oc3cc(-c4cccc(C(F)(F)F)c4)ccc3c(=O)c2c1 [Example 172, 2-[3-amino-4-hydroxy-3-(hydroxymethyl)butyl]-6-[3-(trifluoromethyl)phenyl]-9H-xanthen-9-one]
  ED50: 0.09 mg/kg

## CCCC/C=C/c1ccc2oc3cc(CCC(N)(CO)CO)ccc3c(=O)c2c1 [Example 180, 6-[3-amino-4-hydroxy-3-(hydroxymethyl)butyl]-2-[(1E)-hex-1-en-1-yl]-9H-xanthen-9-one]
  ED50: 0.03 mg/kg
